Measurements taken from ChEMBL document CHEMBL1201862, “PubChem BioAssay data set” (2004).
Values belong to the molecule of their own block, whether it stands above or below them. Calls of active or inactive are those of the source. For most assays here, no stated cut-off is given here; in the data, actives have a measured IC50 and inactives only a lower limit.

What was measured:
[1] = target: Lysine-specific demethylase 4A (Homo sapiens, UniProt O75164); test: JMJD2A histone demethylase inhibitors, dose response, selectivity assay for GASC-1 inhibitor project, biochemical, DELFIA europium, cherry-picked samples (AID 488840)
Lysine-specific demethylase 4A, sequence (O75164 whole entry, the tested form may be a part): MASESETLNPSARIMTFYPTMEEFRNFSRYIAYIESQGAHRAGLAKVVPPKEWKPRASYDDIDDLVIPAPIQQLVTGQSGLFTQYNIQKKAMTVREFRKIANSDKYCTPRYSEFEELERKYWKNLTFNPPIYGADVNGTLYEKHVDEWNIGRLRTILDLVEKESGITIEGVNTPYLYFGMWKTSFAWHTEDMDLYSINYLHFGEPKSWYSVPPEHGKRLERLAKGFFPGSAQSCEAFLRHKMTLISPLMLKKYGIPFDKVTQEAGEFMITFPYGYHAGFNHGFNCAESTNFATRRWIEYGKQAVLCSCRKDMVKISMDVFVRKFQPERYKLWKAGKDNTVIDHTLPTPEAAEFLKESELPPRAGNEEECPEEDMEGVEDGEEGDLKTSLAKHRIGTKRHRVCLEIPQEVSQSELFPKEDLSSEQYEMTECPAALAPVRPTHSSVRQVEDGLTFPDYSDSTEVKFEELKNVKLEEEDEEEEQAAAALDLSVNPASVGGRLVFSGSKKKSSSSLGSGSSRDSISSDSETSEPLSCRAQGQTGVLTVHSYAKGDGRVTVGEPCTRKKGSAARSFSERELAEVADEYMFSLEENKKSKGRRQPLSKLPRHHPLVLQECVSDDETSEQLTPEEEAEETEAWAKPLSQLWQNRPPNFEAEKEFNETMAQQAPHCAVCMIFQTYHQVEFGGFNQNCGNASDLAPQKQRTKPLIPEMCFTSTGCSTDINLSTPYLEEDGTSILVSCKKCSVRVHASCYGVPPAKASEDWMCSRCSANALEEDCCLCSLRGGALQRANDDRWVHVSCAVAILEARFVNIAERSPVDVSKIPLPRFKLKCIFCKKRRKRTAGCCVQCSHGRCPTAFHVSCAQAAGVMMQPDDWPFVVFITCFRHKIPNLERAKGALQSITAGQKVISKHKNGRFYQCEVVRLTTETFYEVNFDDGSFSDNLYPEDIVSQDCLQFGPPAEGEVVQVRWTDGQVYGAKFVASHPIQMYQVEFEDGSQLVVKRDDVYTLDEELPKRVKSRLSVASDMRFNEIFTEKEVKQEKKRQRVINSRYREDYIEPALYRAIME

[2] = target: T1, Nucleotide-binding oligomerization domain-containing protein 1 (Homo sapiens, UniProt Q9Y239); test: NOD1 signaling inhibitors, SAR follow-up, revised (AID 2333); format: functional
T1 sequence (Q9Y239 whole entry): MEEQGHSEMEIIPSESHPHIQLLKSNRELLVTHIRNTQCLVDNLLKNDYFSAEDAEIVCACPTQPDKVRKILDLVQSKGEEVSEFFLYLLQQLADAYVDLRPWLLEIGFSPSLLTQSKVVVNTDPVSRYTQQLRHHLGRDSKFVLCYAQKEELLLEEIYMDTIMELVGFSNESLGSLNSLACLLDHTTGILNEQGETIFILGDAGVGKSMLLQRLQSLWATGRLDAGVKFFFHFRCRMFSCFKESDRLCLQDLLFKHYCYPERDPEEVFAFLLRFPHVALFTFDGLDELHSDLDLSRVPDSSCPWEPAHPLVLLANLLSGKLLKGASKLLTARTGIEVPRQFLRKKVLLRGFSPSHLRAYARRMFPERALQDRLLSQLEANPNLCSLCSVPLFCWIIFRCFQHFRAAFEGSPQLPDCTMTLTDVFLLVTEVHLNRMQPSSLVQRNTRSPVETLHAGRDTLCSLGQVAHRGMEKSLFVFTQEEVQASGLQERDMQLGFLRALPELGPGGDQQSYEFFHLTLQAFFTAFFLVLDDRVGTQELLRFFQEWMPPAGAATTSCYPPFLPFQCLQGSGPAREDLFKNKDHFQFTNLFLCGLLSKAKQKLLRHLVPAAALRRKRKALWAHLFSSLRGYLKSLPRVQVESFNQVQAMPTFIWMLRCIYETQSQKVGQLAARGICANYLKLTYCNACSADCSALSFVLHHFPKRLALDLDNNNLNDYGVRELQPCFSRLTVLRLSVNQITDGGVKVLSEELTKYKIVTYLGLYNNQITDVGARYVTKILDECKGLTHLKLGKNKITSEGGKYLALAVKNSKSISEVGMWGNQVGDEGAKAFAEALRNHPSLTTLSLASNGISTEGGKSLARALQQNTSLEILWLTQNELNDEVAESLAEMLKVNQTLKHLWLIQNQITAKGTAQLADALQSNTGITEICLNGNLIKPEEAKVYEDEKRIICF

HEK293 [3] = test: cells; settings: Homo sapiens
Tumor necrosis factor [4] = target: T2, Tumor necrosis factor (Homo sapiens, UniProt P01375); test: TNFa-triggered NF-kB activation inhibitors, SAR follow-up, cell-based, revised (AID 2337); format: functional
T2 sequence (P01375 whole entry, the tested form may be a part): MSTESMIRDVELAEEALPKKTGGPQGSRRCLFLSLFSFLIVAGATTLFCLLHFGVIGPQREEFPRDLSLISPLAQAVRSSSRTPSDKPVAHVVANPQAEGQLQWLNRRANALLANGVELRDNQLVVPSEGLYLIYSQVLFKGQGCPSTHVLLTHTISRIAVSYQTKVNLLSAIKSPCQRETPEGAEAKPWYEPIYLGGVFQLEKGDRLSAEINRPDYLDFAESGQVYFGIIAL

[5] = target: Nucleotide-binding oligomerization domain-containing protein 2 (Homo sapiens, UniProt Q9HC29); test: NOD2 signaling inhibitors, analog potency, SAR follow-up, cell-based, set 3 (AID 2799); format: functional
Nucleotide-binding oligomerization domain-containing protein 2, sequence (Q9HC29 whole entry, the tested form may be a part): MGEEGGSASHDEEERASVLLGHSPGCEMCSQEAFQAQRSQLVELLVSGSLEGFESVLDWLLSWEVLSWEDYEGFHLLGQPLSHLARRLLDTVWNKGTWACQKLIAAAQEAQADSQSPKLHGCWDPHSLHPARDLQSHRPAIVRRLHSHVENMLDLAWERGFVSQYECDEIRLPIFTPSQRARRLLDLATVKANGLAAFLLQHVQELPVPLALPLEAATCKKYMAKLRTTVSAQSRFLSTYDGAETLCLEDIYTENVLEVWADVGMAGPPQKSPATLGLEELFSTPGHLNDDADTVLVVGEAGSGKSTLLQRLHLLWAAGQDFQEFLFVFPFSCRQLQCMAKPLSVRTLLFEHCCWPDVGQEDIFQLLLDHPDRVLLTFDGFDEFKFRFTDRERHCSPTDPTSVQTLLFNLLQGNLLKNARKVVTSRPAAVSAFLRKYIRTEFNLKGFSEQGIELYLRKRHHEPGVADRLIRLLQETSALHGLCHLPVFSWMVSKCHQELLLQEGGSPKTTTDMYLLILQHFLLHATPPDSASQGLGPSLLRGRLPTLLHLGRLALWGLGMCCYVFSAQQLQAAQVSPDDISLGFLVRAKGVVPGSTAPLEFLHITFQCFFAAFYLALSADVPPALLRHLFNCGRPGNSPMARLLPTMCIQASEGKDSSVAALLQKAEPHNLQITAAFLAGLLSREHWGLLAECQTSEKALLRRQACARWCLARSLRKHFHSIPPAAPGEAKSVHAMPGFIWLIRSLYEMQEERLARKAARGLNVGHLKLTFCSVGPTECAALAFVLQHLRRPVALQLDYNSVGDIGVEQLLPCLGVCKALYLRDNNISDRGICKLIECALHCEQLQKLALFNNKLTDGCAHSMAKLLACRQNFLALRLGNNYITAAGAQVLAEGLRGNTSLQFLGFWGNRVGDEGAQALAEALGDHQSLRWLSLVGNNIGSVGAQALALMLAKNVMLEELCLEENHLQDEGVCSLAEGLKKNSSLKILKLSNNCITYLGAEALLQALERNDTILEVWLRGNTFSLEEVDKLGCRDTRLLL

[6] = target: T1, Nucleotide-binding oligomerization domain-containing protein 1; test: SAR analysis of compounds that inhibit NOD1 - Set 3. [Related pubchem assays (depositor defined):AID1566, AID1575, AID1578, AID1849, AID1852, AID2333, AID2335, AID2466]; format: functional
Tumor necrosis factor [7] = target: T2, Tumor necrosis factor; test: TNFa-triggered NF-kB activation inhibitors, SAR follow-up, cell-based, set 3 (AID 2801); format: functional
HEK293 [8] = test: SAR analysis of compounds that are cytotoxic to HEK293 - Set 3. [Related pubchem assays (depositor defined):AID1575, AID1578, AID1848, AID1849, AID2001, AID2333, AID2334, AID2335, AID2337, AID2469]; format: functional, cell-based; settings: Homo sapiens
[9] = target: T3, Beta-adrenergic receptor kinase 1 (Homo sapiens, UniProt P25098); test: GRK2 inhibitors displacing RNA aptamer, dose response, biochemical, flow cytometry beads, FAM-aptamer, powder set 1 (AID 588720)
T3 sequence (P25098 whole entry): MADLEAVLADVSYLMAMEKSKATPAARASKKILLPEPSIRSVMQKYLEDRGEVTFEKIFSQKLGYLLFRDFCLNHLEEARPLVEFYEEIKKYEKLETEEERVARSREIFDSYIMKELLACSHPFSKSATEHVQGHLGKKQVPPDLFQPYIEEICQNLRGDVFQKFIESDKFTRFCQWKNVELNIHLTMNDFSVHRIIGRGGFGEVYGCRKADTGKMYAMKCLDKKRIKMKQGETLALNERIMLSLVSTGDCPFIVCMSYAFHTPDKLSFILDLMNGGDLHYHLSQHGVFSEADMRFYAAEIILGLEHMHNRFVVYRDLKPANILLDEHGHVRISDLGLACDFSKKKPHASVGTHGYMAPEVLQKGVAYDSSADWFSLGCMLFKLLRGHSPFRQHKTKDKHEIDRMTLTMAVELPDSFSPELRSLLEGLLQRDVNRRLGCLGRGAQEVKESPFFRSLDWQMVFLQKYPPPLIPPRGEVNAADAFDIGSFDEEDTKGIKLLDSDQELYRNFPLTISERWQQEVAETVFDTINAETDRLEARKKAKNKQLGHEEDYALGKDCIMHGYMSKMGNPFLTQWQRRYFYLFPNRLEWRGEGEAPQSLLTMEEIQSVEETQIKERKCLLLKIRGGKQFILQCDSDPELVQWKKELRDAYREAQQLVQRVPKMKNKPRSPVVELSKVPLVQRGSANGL

AC50 [1]: 9.18 µM (active)
SMILES: O=c1n(Cc2ccccc2)c2cc(Cl)cnc2n1Cc1ccccc1

SMILES: COC(=O)CC1=NN(c2ccccc2)C(=O)/C1=C/Nc1ccc(C)cc1
IC50 [2]: > 20 µM (inactive) | IC50 (HEK293 [3]): > 20 µM (inactive) | IC50 (Tumor necrosis factor [4]): > 20 µM (inactive)

SMILES: Nc1cc(-c2ccccc2)nn1S(=O)(=O)c1ccc(F)c(Cl)c1
IC50 [5]: > 20 µM (inactive) | IC50 [6]: > 20 µM (inactive) | IC50 (Tumor necrosis factor [7]): > 20 µM (inactive) | IC50 (HEK293 [8]): > 20 µM (inactive)

EC50 [9]: 22.3 µM (inactive)
SMILES: Cc1cccc(CCNC(=O)CCS(=O)(=O)c2ccc(Br)cc2)c1
